The results in this text go back to patent publication US20140242093A1, “METHODS AND COMPOSITIONS FOR MODULATING THE INNATE IMMUNE RESPONSE AND/OR MYOGENESIS IN A MAMMALIAN SUBJECT” (FRED HUTCHINSON CANCER RESEARCH CENTER, priority 2011, published 2014).

In the experiment the test system is 31-bp oligonucleotides containing the putative DUX4 binding site. Briefly: Electromobility shift assay (EMSA). The arrangement: species or system human. The note with it: in vitro translated protein; TRIM48, CSF1R, THE1D oligos. How it is done:
EMSA was performed with ^32P-labeled 31-bp oligonucleotides from endogenous genomic sequences containing the putative DUX4 binding site as probes (sequences below; only forward shown). Radiolabeled probes were incubated with in vitro translated protein generated from pCS2-DUX4-fl or pCS2-DUX4-s^2 vectors using the TNT SP6 Coupled Wheat Germ Extract System (Promega) according to manufacturer's instructions. To obtain supershift of protein-DNA complexes, 0.1 μg of E14-3 anti-DUX4 rabbit monoclonal antibody was added to the mixtures. For competition experiments, excess unlabeled probes of either wild-type or mutant sequences were included in the binding reaction. The gels were prepared and run as previously described (Knoepfler et al., 1999).
In general terms: In EMSA bound probe runs differently from free probe, usually more slowly.

In the case of “DUX4-fl: full-length DUX4 protein (SEQ ID NO:110), expressed from lentiviral or pCS2 vectors or in vitro translated”, the “binding to DUX4 core motifs” value was “binds the core motifs present in both MaLR-associated and non-repeat associated sites”.
